Data reported in ChEMBL document CHEMBL3526100, “A refined cytochrome P540 IC₅₀ shift assay for reliably identifying CYP3A time-dependent inhibitors” (Drug Metab Dispos, 2011).

Key:
Assay type in all cases: ADME
Cytochrome P450 3A4 [1] = target: T1, Cytochrome P450 3A4 (Homo sapiens, UniProt P08684); experiment: Time dependent inhibition of CYP3A4 in human liver microsomes assessed as conversion of testosterone to 6beta-hydroxytestosterone at 0.01 to 100 uM preincubated for 60 mins followed by testosterone treatment measured after 10 mins by LC-MS/MS analysis in presence of NADPH
T1 sequence (P08684 whole entry): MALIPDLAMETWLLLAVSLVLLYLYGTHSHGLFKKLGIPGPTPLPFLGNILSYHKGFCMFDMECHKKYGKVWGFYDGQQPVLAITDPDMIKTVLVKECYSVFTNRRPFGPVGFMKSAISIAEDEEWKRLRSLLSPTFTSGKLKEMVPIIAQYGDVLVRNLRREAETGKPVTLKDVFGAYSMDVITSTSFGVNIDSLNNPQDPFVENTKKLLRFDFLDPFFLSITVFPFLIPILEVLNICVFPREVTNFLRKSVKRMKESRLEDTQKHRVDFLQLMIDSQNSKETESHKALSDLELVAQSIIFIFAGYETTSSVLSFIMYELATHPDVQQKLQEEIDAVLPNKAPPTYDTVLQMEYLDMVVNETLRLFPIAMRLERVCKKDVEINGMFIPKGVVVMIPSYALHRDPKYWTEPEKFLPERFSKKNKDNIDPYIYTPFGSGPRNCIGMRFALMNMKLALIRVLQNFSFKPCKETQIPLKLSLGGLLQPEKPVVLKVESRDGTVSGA

Cytochrome P450 3A4 [2] = target: T1, Cytochrome P450 3A4; experiment: Time dependent inhibition of CYP3A4 in human liver microsomes assessed as conversion of testosterone to 6beta-hydroxytestosterone at 0.01 to 100 uM preincubated for 60 mins followed by testosterone treatment measured after 10 mins by LC-MS/MS analysis
Cytochrome P450 3A4 [3] = target: T1, Cytochrome P450 3A4; experiment: Time dependent inhibition of CYP3A4 in human liver microsomes assessed as conversion of testosterone to 6beta-hydroxytestosterone at 0.01 to 100 uM preincubated for 60 mins followed by testosterone treatment measured after 10 mins by refined CYP450 IC50 shift assay in presence of NADPH
Cytochrome P450 3A4 [4] = target: T1, Cytochrome P450 3A4; experiment: Time dependent inhibition of CYP3A4 in human liver microsomes assessed as conversion of testosterone to 6beta-hydroxytestosterone at 0.01 to 100 uM preincubated for 60 mins followed by testosterone treatment measured after 10 mins by refined CYP450 IC50 shift assay

Measured: inhibition (INH)

CC(C)=CCC/C(C)=C/COc1c2ccoc2cc2oc(=O)ccc12 [BERGAMOTTIN]
Active: Cytochrome P450 3A4 [1] | Cytochrome P450 3A4 [2] | Cytochrome P450 3A4 [3] | Cytochrome P450 3A4 [4]

C/C(=C\COc1c2ccoc2cc2oc(=O)ccc12)CCC(O)C(C)(C)O (stereo not given) [DIHYDROXYBERGAMOTTIN]
Active: Cytochrome P450 3A4 [1] | Cytochrome P450 3A4 [2] | Cytochrome P450 3A4 [3] | Cytochrome P450 3A4 [4]

CC[C@H]1OC(=O)[C@H](C)[C@@H](O[C@H]2C[C@@](C)(OC)[C@@H](O)[C@H](C)O2)[C@H](C)[C@@H](O[C@@H]2O[C@H](C)C[C@H](N(C)C)[C@H]2O)[C@](C)(O)C[C@@H](C)C(=O)[C@H](C)[C@@H](O)[C@]1(C)O [ERYTHROMYCIN]
Active: Cytochrome P450 3A4 [1] | Cytochrome P450 3A4 [2] | Cytochrome P450 3A4 [3] | Cytochrome P450 3A4 [4]

CNCCC(Oc1ccc(C(F)(F)F)cc1)c1ccccc1 (stereo not given) [FLUOXETINE]
Active: Cytochrome P450 3A4 [1] | Cytochrome P450 3A4 [2] | Cytochrome P450 3A4 [3] | Cytochrome P450 3A4 [4]

O=C(c1ccc(OCCN2CCCCC2)cc1)c1c(-c2ccc(O)cc2)sc2cc(O)ccc12 [RALOXIFENE]
Active: Cytochrome P450 3A4 [1] | Cytochrome P450 3A4 [2] | Cytochrome P450 3A4 [3] | Cytochrome P450 3A4 [4]
